ChEMBL document CHEMBL1132754, “Photosensitizers related to purpurin-18-N-alkylimides: a comparative in vivo tumoricidal ability of ester versus amide functionalities” (Bioorg Med Chem Lett, 2000)

Legend:
[1] = test system: Mus musculus; test: Tumor versus muscle uptake ratio in mice (implanted with RIFtumor)by in vivo reflectance spectroscopy at 5 min, 24 hr and 48 hr post injection (5.0 umol/kg); type: functional, Muscle tissue
[2] = test system: Mus musculus; test: Percent tumor response in mice (implanted with RIF tumor) on day 7 at 24 hours post injection (1.0 umol/kg); type: functional
[3] = test system: Mus musculus; test: The in vivo tumor uptake was determined by reflectance spectroscopy in mouse; type: functional
[4] = Partition coefficient (logP); type: physicochemical; details: octanol/water
[5] = test system: Mus musculus; test: Percent tumor response in mice (implanted with RIF tumor) on day 30 after administering the compound (1.0 umol/kg); type: functional
[6] = test system: Mus musculus; test: Photodynamic therapy response in mice (implanted with RIF tumor) on day 25 after administering the compound (0.4 umol/kg);Tumor regrowth; type: functional, organism-based
[7] = test system: Mus musculus; test: Photodynamic therapy response in mice (implanted with RIF tumor)after administering the compound (0.4 umol/kg); Decreased; type: functional, organism-based
[8] = test system: Mus musculus; test: Photodynamic therapy response in mice (implanted with RIF tumor) on day 20 after administering the compound (0.4 umol/kg); type: functional
[9] = test system: Mus musculus; test: Photodynamic therapy response in mice (implanted with RIF tumor) on day 15 after administering the compound (0.4 umol/kg); type: functional
[10] = test system: Mus musculus; test: Photodynamic therapy response in mice (implanted with RIF tumor) on day 10 after administering the compound (0.4 umol/kg); Complete response; type: functional, organism-based

Compound: CCCCCCNC(=O)CC[C@@H]1c2nc(cc3[nH]c(cc4[nH]c(cc5nc6c2C(=O)N(CCCCCC)C(=O)C6=C5C)c(CC)c4C)c(C(C)OCCC)c3C)[C@H]1C (stereo partly specified)
- Ratio [1]: 2.69
- Tumor response [2]: 67%
- Tumor uptake [3]: 7 µM/kg
- logP [4]: 10.3

Compound: CCCCCCNC(=O)CC[C@@H]1c2nc(cc3[nH]c(cc4[nH]c(cc5nc6c2C(=O)N(CCCCCC)C(=O)C6=C5C)c(CC)c4C)c(C(C)OCCCCC)c3C)[C@H]1C (stereo partly specified)
- Ratio [1]: 3.32
- Tumor response [2]: 20%
- Tumor uptake [3]: 7.33 µM/kg
- logP [4]: 11.3

Compound: CCCCCCN1C(=O)c2c3nc(cc4nc(cc5[nH]c(cc6[nH]c2c(c6C)C1=O)c(CC)c5C)C(C(C)OCCCC)=C4C)[C@@H](C)[C@@H]3CCC(=O)OC (stereo partly specified)
- Ratio [1]: 2.22
- Tumor response [2]: 100%
- Tumor uptake [3]: 12.9 µM/kg
- logP [4]: 9.3

Compound: CCCCCCCCCCOC(C)C1=C(C)c2cc3nc(c4c5[nH]c(cc6[nH]c(cc1n2)c(C)c6CC)c(C)c5C(=O)N(CCCCCC)C4=O)[C@@H](CCC(=O)OC)[C@@H]3C (stereo partly specified)
- Ratio [1]: 3.23
- Tumor response [2]: 100%
- Tumor uptake [3]: 4.2 µM/kg

Compound: CCCCCCNC(=O)CC[C@@H]1c2nc(cc3[nH]c(cc4[nH]c(cc5nc6c2C(=O)N(CCCCCC)C(=O)C6=C5C)c(CC)c4C)c(C(C)OC)c3C)[C@H]1C (stereo partly specified)
- Ratio [1]: 4.35
- Tumor response [2]: 0%
- Tumor uptake [3]: 6.4 µM/kg
- logP [4]: 9.3

Compound: CCCCCCOC(C)C1=C(C)c2cc3nc(c4c5[nH]c(cc6[nH]c(cc1n2)c(C)c6CC)c(C)c5C(=O)N(CCCCCC)C4=O)[C@@H](CCC(=O)OC)[C@@H]3C (stereo partly specified)
- Response [5]: 100%
- Ratio [1]: 8
- Tumor response [2]: 100%
- Response [6]: Complete response
- Response [7]: Complete response
- Tumor uptake [3]: 7.27 µM/kg
- logP [4]: 10.3
- Response [8]: 60%
- Response [9]: 80%
- Response [10]: Complete response

Compound: CCCCCCCCOC(C)C1=C(C)c2cc3nc(c4c5[nH]c(cc6[nH]c(cc1n2)c(C)c6CC)c(C)c5C(=O)N(CCCCCC)C4=O)[C@@H](CCC(=O)OC)[C@@H]3C (stereo partly specified)
- Ratio [1]: 2.9
- Tumor response [2]: 10%
- Tumor uptake [3]: 15.7 µM/kg
- logP [4]: 11.3

Compound: CCCCCCCOC(C)C1=C(C)c2cc3nc(c4c5[nH]c(cc6[nH]c(cc1n2)c(C)c6CC)c(C)c5C(=O)N(CCCCCC)C4=O)[C@@H](CCC(=O)NCCCCCC)[C@@H]3C (stereo partly specified)
- Ratio [1]: 3.59
- Tumor response [2]: 50%
- Tumor uptake [3]: 6.58 µM/kg
